Measurements reported in PMC8512368, “Alpha-Glucosidase Inhibitory Assay-Screened Isolation and Molecular Docking Model from Bauhinia pulla Active Compounds” (Molecules, 2021).
Read-outs that look alike come from different tables or passages of the source. Blank lines part the entries; values can stand above or below the compound they belong to.

Target: T1, alpha-glucosidase enzyme from Saccharomyces cerevisiae (EC 3.2.1.20) (Saccharomyces cerevisiae, UniProt P53341)
T1 construct: purchased Sigma-Aldrich
Test: biochemical
Format: biochemical
Procedure: Briefly, the enzyme from Saccharomyces cerevisiae (EC 3.2.1.20) and the pNPG substrate were dissolved in 0.1 M phosphate buffer (pH 7), which was enriched by bovine serum albumin and sodium azide. Standards and samples were suspended in 20% (v/v) of DMSO in a water solution. In a 96-well plate, 50 µl of PBS, standards, samples and enzyme solutions were mixed and incubated for 2 min at 37 °C. At last, 50 µl of 4 mM pNPG was added and incubated for 5 min before the kinetic parameter measurement, as described earlier.
The velocity was examined by a linear relationship equation between absorbance and time, Equation (1).
The percent inhibition was determined for the highest velocity as:% Inhibition = (V control − V sample)/(V control) × 100(2)
The IC50 value was calculated by using a calibration curve equation between samples at five different concentrations and inhibition percentages.

[1] = isolated compounds (Table 2), read-out: IC50 (converted)

T1 sequence (P53341 whole entry): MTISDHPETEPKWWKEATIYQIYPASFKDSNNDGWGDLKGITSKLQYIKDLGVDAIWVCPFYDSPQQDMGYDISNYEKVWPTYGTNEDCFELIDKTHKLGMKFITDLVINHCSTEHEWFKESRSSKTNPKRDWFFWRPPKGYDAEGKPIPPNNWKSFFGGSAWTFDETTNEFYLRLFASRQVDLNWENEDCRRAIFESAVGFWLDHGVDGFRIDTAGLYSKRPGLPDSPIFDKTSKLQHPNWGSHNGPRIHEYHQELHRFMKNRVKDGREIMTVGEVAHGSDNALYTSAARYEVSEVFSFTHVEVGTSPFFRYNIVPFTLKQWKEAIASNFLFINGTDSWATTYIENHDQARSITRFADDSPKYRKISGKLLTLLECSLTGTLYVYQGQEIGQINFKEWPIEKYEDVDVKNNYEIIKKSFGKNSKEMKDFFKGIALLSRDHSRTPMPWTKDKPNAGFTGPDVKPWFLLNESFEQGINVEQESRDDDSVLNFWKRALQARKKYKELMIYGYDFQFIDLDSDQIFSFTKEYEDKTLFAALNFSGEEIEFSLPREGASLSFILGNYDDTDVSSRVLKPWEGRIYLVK

Compound: COc1ccc(/C=C/C(=O)c2ccc(O)cc2O)cc1 [4-methyl ether isoliquiritigenin]
- IC50 [1]: 814 µM

Compound: O=c1cc(-c2ccc(O)c(O)c2)oc2cc(O)ccc12 [5-deoxyluteolin]
- IC50 [1]: 2130 µM
- IC50 fold higher compared to luteolin (ratio of IC50 values): 3.5 fold

Compound: C[C@@H]1O[C@@H](Oc2c(-c3ccc(O)c(O)c3)oc3cc(O)cc(O)c3c2=O)[C@H](O)[C@H](O)[C@H]1O [Quercitrin, quercitrin]
- IC50: 111 µM
- inhibitory activity drop compared with quercetin (sugar moiety added) (ratio of IC50 values): roughly 10 fold

Second part, the compound after the results:

- IC50 [1]: 4450 µM
Compound: COc1ccc(/C=C/C(=O)c2ccc(O)cc2O)cc1O [3,2’ ,4’-trihydroxy-4-methoxychalcone, 3,2’,4’-trihydroxy-4-methoxychalcone]

- IC50 [1]: 573 µM
Compound: O=c1cc(-c2ccc(O)c(O)c2)oc2cc(O)cc(O)c12 [Luteolin, luteolin]
